Reference: patent US8173668B1 (Alcon Research, Ltd., priority 2007, dated 2012)
Like-named read-outs stand apart in the source and are kept apart here.

Assays:
[1] = target: T1, B2-receptors in h-TM cells (Homo sapiens, UniProt P30411); experiment: [Ca2+]i mobilization (FLIPR) in h-TM cells, agonist mode; format: cell-based; conditions: for Emax: HTM, read-out: Intrinsic Activity (Emax, % max relative to BK)
T1 construct: B2-receptor proteins in h-TM, h-CM and h-NPE cells; endogenous in cells; host or cells: human trabecular meshwork (h-TM), human ciliary muscle (h-CM) and human non-pigmented ciliary epithelial (h-NPE) cells
T1 sequence (P30411 1-391): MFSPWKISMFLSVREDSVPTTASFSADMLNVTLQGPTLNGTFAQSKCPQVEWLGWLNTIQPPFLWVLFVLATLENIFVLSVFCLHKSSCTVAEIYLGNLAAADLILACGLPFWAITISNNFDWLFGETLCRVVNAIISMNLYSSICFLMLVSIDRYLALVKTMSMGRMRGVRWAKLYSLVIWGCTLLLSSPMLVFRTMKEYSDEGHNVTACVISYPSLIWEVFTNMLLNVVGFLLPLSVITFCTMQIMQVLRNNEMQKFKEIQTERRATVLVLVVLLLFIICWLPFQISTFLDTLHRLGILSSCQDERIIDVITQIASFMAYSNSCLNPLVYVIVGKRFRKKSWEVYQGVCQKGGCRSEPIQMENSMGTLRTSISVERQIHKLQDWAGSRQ
Method: (§1) On the day of the experiment, one vial of FLIPR Calcium Assay Kit dye is re-suspended in 50 mL of a FLIPR buffer consisting of Hank's Balanced Salt Solution (HBSS), 20 mM HEPES, and 2.5 mM probenecid, pH 7.4. Cells are loaded with the calcium-sensitive dye by addition of an equal volume (50 μL) to each well of the 96-well plate and incubated with dye for 1 h at 23° C. After this time, the test compound plate and cell plate are placed in the FLIPR instrument. At the beginning of an experimental run, a signal test is performed to check the basal fluorescence signal from the dye-loaded cells and the uniformity of the signal across the plate. The basal fluorescence is adjusted between 8000-12000 counts by modifying the exposure time, the camera F-stop, or the laser power. Instrument settings for a typical assay are the following: laser power 0.3-0.6 W, camera F-stop F/2, and exposure time 0.4 sec.
(§2) Fluorescence data are collected in real-time at 1.0 sec intervals for the first 60 secs and at 6.0 sec intervals for an additional 120 secs. […] The data are then analyzed using an automated, iterative, sigmoidal curve-fitting computer program to obtain the potency and intrinsic activities of the test agents as previously described (Sharif et al. J. Pharmacol. Exp. Ther. 286: 1094-1102, 1998; Sharif et al. Invest. Ophthalmol. Vis. Sci. 39:2562-2571, 1998; Kelly et al. J. Pharmacol. Exp. Ther. 304: 238-245, 2003). The sources of materials and reagents for such assays can be found in the references cited above.

[2] = target: T2, B2-receptors in h-CM cells (Homo sapiens, UniProt P30411); experiment: [Ca2+]i mobilization (FLIPR) in h-CM cells, agonist mode; format: cell-based; conditions: read-out: Intrinsic Activity (Emax, % max relative to BK)
T2 construct: B2-receptor proteins in h-TM, h-CM and h-NPE cells; endogenous in cells; host or cells: human trabecular meshwork (h-TM), human ciliary muscle (h-CM) and human non-pigmented ciliary epithelial (h-NPE) cells
T2 sequence (P30411 1-391): T1 sequence (P30411 1-391)
Method: as §1, §2

[3] = target: T3, B2-receptors in h-NPE cells (Homo sapiens, UniProt P30411); experiment: [Ca2+]i mobilization (FLIPR) in h-NPE cells, agonist mode; format: cell-based; conditions: for Emax: read-out: Intrinsic Activity (Emax, % max relative to BK)
T3 construct: B2-receptor proteins in h-TM, h-CM and h-NPE cells; endogenous in cells; host or cells: human trabecular meshwork (h-TM), human ciliary muscle (h-CM) and human non-pigmented ciliary epithelial (h-NPE) cells
T3 sequence (P30411 1-391): T1 sequence (P30411 1-391)
Method: as §1, §2

[4] = target: T4, BK B2-Receptor in h-NPE cells (Homo sapiens, UniProt P30411); experiment: Antagonism of FR-190997-induced [Ca2+]i mobilization in h-NPE cells; format: cell-based; conditions: FR-190997 as the agonist, read-out: Antagonist Potency (Ki)
T4 construct: B2-receptor proteins in h-TM, h-CM and h-NPE cells; endogenous in cells; host or cells: human trabecular meshwork (h-TM), human ciliary muscle (h-CM) and human non-pigmented ciliary epithelial (h-NPE) cells
T4 sequence (P30411 1-391): T1 sequence (P30411 1-391)
Method: as §1, §2

[5] = system: conscious ocular hypertensive cynomolgus monkey eyes; experiment: IOP response in lasered (hypertensive) eyes of conscious cynomolgus monkeys, topical ocular; format: in vivo; conditions: for modulation of IOP: 300 μg topically administered; for % Change in IOP: Table 10, 300 μg topical ocular
Method: Intraocular pressure (IOP) is determined with an Alcon Pneumatonometer (Alcon Laboratories, Inc., Fort Worth, Tex.) after light corneal anesthesia with 0.1% proparacaine. Right eyes are hypertensive as a result of laser trabeculoplasty. After a baseline IOP measurement, test compound is instilled in the right eyes only of 8-10 cynomolgus monkeys. Vehicle is instilled in the right eyes of 5-6 additional animals. Subsequent IOP measurements are taken at 1, 3, and 6 hours. IOP measurements are also taken on left eyes (normotensive and untreated) at each of these time points. The percent change in IOP from baseline is determined for each animal for every IOP measurement (Sharif et al. J. Ocular Pharmacol. Ther. 17: 305-317, 2001; May et al., J Pharmacol Exp Ther. 306: 301-309, 2003; Sharif et al. Invest. Ophthalmol. Vis. Res. 47: 4001-4010, 2006). Group mean and standard error of the mean (SEM) are calculated for each time point. […] In cases where the compound of invention has poor ocular bioavailability, the compound may need to be administered intracamerally or intravitreally in order to observe the IOP-lowering efficacy.
The IOP-lowering effect was slow to develop but significant IOP reduction was observed even 3 hours post-dosing with maximum ocular hypotension observed 16-48 hours post-dosing (Tables 6-8; FIGS. 3b-5).

[6] = target: human bradykinin B2-receptor (human) (UniProt P30411); experiment: cell-based or functional assay
[7] = system: Human trabecular meshwork (TM) cells; experiment: PGE2 production (RIA) in human trabecular meshwork cells; format: cell-based; conditions: 1 h at 37° C., BK 100 nM or 1 μM, fluprostenol 1 μM, non-peptide agonists 1 μM or 10 μM, FIG. 6
Method: The ability of BK agonists to stimulate prostaglandin E2 (PGE2) production was examined as follows. Human trabecular meshwork (TM) cells were seeded in culture plates and allowed to reach confluence. […] Fluprostenol was used as a positive control. After this time the assay was terminated by placing the assay plates on ice and by the addition of 100 μL of a cell-lysis reagent supplied with the PGE2 radioimmunoassay (RIA) kit (Amersham Pharmacia Biotech, Arlington Heights, Ill.). All reagents and standards supplied in the RIA kit were prepared and the RIA performed according to the manufacturer's instructions. Assay buffer, diluted prostaglandin E2 (PGE2) standard and supernatant from the cell-based experiment (diluted 1:100 v/v) were then pipetted into appropriate tubes as specified in the kit instructions. […]
After this incubation, all tubes were placed in an ice-bath and 1 ml cold precipitating reagent supplied in the kit was added to the tubes, the content mixed and incubated for 25 min at 4° C. […] The supernatants of all tubes were decanted as specified in the kit instructions and the RIA samples analyzed on a gamma-counter. The levels of PGE2 generated by the test agent were then quantified in comparison with the PGE2-standard curve. Dose-response data for the test agent were constructed and the potency and intrinsic activity determined as described above for other assays.

[8] = target: T5, human bradykinin B2-receptor (human, UniProt P30411 1-391); experiment: cell-based or functional assay
T5 sequence (looked up): T1 sequence (P30411 1-391)

H-RPPGFSPFR-OH [BK]
Emax [1]: 110% | Emax [2]: 104% | Emax [3]: 98%

CNC(=O)c1ccc(/C=C/C(=O)NCC(=O)N(C)c2ccc(Cl)c(COc3cccc4ccc(C)nc34)c2Cl)cc1 [FR-165649, reference compound]
Ki [4]: 146 nM | modulation of IOP [5]: failed to modulate IOP | % Change in IOP ([5]; Dose 1/1 hr): 1.0 ± 3.1% | % Change in IOP ([5]; Dose 1/3 hr): 0.7 ± 3.5% | % Change in IOP ([5]; Dose 1/6 hr): −6.2 ± 4.7% | % Change in IOP ([5]; Dose 1/24 hr): −4.0 ± 3.2%

N=C(N)NCCC[C@H](N)C(=O)N1CCC[C@H]1C(=O)N1CCC[C@H]1C(=O)NCC(=O)N[C@@H](Cc1ccccc1)C(=O)N[C@@H](CO)C(=O)N1CCC[C@H]1C(=O)N[C@@H](Cc1ccccc1)C(=O)O [Des-Arg^9-BK]
Emax ([1]; h-TM cells, mean ± SEM): 112% | Emax ([2]; h-CM cells, mean ± SEM): 94% | Emax ([3]; h-NPE cells, mean ± SEM): 70%

N=C(N)NCCC[C@H](NC(=O)[C@H](Cc1ccccc1)NC(=O)[C@@H]1CCCN1C(=O)[C@H](CO)NC(=O)[C@H](Cc1ccccc1)NC(=O)CNC(=O)[C@@H]1CCCN1C(=O)[C@@H]1CCCN1C(=O)[C@H](CCCNC(=N)N)NC(=O)[C@@H](N)CCCCN)C(=O)O [Lys-BK]
Emax ([1]; h-TM cells, mean ± SEM): 115% | Emax ([2]; h-CM cells, mean ± SEM): 115% | Emax ([3]; h-NPE cells, mean ± SEM): 90%

Hyp^3-BK (Arg-Pro-Hyp-Gly-Phe-Ser-Pro-Phe-Arg) (peptide)
[Ca2+]i mobilization in h-CM cells: Intrinsic Activity (Emax, % max relative to BK) [6]: 105% | [Ca2+]i mobilization in h-NPE cells: Intrinsic Activity (Emax, % max relative to BK) [6]: 93% | [Ca2+]i mobilization in h-NPE cells: Potency (EC50; nM) [6]: 6 nM | [Ca2+]i mobilization in h-TM cells: Intrinsic Activity (Emax, % max relative to BK) [6]: 110% | [Ca2+]i mobilization in h-TM cells: Potency (EC50; nM) [6]: 0.9 nM

Des-Arg^9-BK (Arg-Pro-Pro-Gly-Phe-Ser-Pro-Phe) (peptide)
[Ca2+]i mobilization in h-CM cells: Intrinsic Activity (Emax, % max relative to BK) [6]: 94% | [Ca2+]i mobilization in h-CM cells: Potency (EC50; nM) [6]: 4260 nM | [Ca2+]i mobilization in h-NPE cells: Intrinsic Activity (Emax, % max relative to BK) [6]: 70% | [Ca2+]i mobilization in h-NPE cells: Potency (EC50; nM) [6]: 16000 nM | [Ca2+]i mobilization in h-TM cells: Intrinsic Activity (Emax, % max relative to BK) [6]: 112% | [Ca2+]i mobilization in h-TM cells: Potency (EC50; nM) [6]: 2570 nM

CCCC[P+](CCCC)(CCCC)Cc1ccc(NC(=O)[C@H](Cc2ccc3ccccc3c2)NC(=NC2CCCCC2)NC2CCCCC2)cc1.[Cl-] [WIN-64338, reference compound]
modulation of IOP [5]: failed to modulate IOP | % Change in IOP ([5]; Dose 1/1 hr): 1.7 ± 1.6% | % Change in IOP ([5]; Dose 1/3 hr): −10.4 ± 2.8% | % Change in IOP ([5]; Dose 1/6 hr): 1.3 ± 1.3%

CSCC[C@H](N)C(=O)N[C@@H](CCCCN)C(=O)N[C@@H](CCCNC(=N)N)C(=O)N1CCC[C@H]1C(=O)N1CCC[C@H]1C(=O)NCC(=O)N[C@@H](Cc1ccccc1)C(=O)N[C@@H](CO)C(=O)N1CCC[C@H]1C(=O)N[C@@H](Cc1ccccc1)C(=O)N[C@@H](CCCNC(=N)N)C(=O)O [Met-Lys-BK]
Emax ([1]; h-TM cells, mean ± SEM): 111% | Emax ([2]; h-CM cells, mean ± SEM): 110% | Emax ([3]; h-NPE cells, mean ± SEM): 77%

N=C(N)NCCC[C@H](NC(=O)[C@H](Cc1ccccc1)NC(=O)[C@@H]1CCCN1C(=O)[C@H](CO)NC(=O)[C@H](Cc1ccccc1)NC(=O)CNC(=O)[C@@H]1C[C@@H](O)CN1C(=O)[C@@H]1CCCN1C(=O)[C@@H](N)CCCNC(=N)N)C(=O)O [Hyp^3-BK, Arg-Pro-Hyp-Gly-Phe-Ser-Pro-Phe-Arg]
EC50 [1]: 0.9 ± 0.3 nM | Emax [1]: 110% | Emax [2]: 105% | EC50 [3]: 6 ± 0.6 nM | Emax [3]: 93%

O=C(O)CCC/C=C\C[C@@H]1[C@@H](/C=C/[C@@H](O)COc2cccc(C(F)(F)F)c2)[C@H](O)C[C@@H]1O (racemic) [fluprostenol, reference compound]
production of endogenous prostaglandins (PGE2) [7]: stimulate the production of endogenous prostaglandins

B1: Met-Lys-BK (Met-Lys-Arg-Pro-Pro-Gly-Phe-Ser-Pro-Phe-Arg) (peptide)
peptide: MKRPPGFSPFR
[Ca2+]i mobilization in h-CM cells: Intrinsic Activity (Emax, % max relative to BK) [8]: 110% | [Ca2+]i mobilization in h-CM cells: Potency (EC50; nM) [8]: 16.1 nM | [Ca2+]i mobilization in h-NPE cells: Intrinsic Activity (Emax, % max relative to BK) [8]: 77% | [Ca2+]i mobilization in h-NPE cells: Potency (EC50; nM) [8]: 125 nM | [Ca2+]i mobilization in h-TM cells: Intrinsic Activity (Emax, % max relative to BK) [8]: 111% | [Ca2+]i mobilization in h-TM cells: Potency (EC50; nM) [8]: 6.5 nM

B2: Lys-BK (Lys-Arg-Pro-Pro-Gly-Phe-Ser-Pro-Phe-Arg) (peptide)
peptide: KRPPGFSPFR
[Ca2+]i mobilization in h-CM cells: Intrinsic Activity (Emax, % max relative to BK) [8]: 115% | [Ca2+]i mobilization in h-CM cells: Potency (EC50; nM) [8]: 3.2 nM | [Ca2+]i mobilization in h-NPE cells: Intrinsic Activity (Emax, % max relative to BK) [8]: 90% | [Ca2+]i mobilization in h-NPE cells: Potency (EC50; nM) [8]: 19.6 nM | [Ca2+]i mobilization in h-TM cells: Intrinsic Activity (Emax, % max relative to BK) [8]: 115% | [Ca2+]i mobilization in h-TM cells: Potency (EC50; nM) [8]: 1.9 nM
